Earlier results on 21 molecules are cited in publication PMC9370779, “Traditional Medicinal Uses, Phytochemistry, Biological Properties, and Health Applications of Vitex sp” (Plants, 2022).

“Also recorded” adds a separate entry of the source. Like-named read-outs stand apart in the source and are kept apart here. Where only a bound is given, the exact number is not on record here.

In data set [1] the test system is NO production. Set-up: method as in PMID 27535293. The conditions noted are these: up to a concentration of 100 µM.
Data set [2] has as its system gastric cancer (SGC-7901).
Data set [3] concerns pancreatic cancer (PANC-01).
Data set [4] has as its system esophageal carcinoma (Eca-109).
Data set [5] deals with human liver carcinoma (HepG2) cell lines. Set-up: method as in PMID 27118321.
Another data set concerns the target dopamine-D2-receptor. Set-up: method as in PMID 10865453.
On the set-up of data set [6]: method as in PMID 10579867.
In a further data set the test system is HCT 116 cells. Set-up: method as in PMID 28602939.
Another data set concerns Topoisomerase-1 (Top1). Set-up: method as in PMID 28602939.
Details of data set [7]: method as in PMID 28602939. The following applies: cell line not stated.
The subject of data set [8] is lipopolysaccharide-induced nitric oxide (NO) production. More on the design: method as in doi:10.1002/hlca.201600022.
Data set [9] deals with interleukin 1-beta (IL-1β). More on the design: method as in PMID 31302252.
Another data set deals with IL-6. More on the design: method as in PMID 31302252.
The next data set concerns NF-κB signal pathways. More on the design: method as in PMID 31302252.
A further data set concerns COX-2. More on the design: method as in PMID 31302252.
Data set [10] has as its system LPS-induced NO production. Set-up: method as in PMID 31302252.
Data set [11] deals with inducible nitric oxide synthase (iNOS). Set-up: method as in PMID 31302252.
For data set [12], the system named is human nasopharyngeal carcinoma (CNE1) cell line. More on the design: method as in PMID 28453270. The following applies: read-out: cytotoxic activity against CNE1, IC50 value.
Data set [13] concerns LPS-induced NO production in murine microglia (BV-2) cells. More on the design: method as in PMID 27118321.
Details of data set [14]: method as in PMID 27118321. The conditions noted are these: ABTS stated for 131.
Another data set concerns BV-2 cells. Set-up: method as in PMID 31448638.
In data set [15] the test system is LPS-induced NO production in murine microglial cell BV-2 cells. More on the design: method as in PMID 31448638. The following applies: read-out: inhibition of LPS-stimulated NO production, IC50.
For the next data set, the system named is Musca domestica larvae. More on the design: method as in doi:10.1016/S0031-9422(00)94985-9.
Data set [16] deals with cervical cancer (HeLa) cell. More on the design: method as in PMID 19156599. The conditions noted are these: range given for both compounds together; read-out: inhibition of HeLa cell proliferation, IC50.
In data set [17] the test system is NADP(H); quinone oxireductase type1 (QR1). More on the design: method as in PMID 23662135.
Data set [18] relates to NO production. More on the design: method as in PMID 25245917. The conditions noted are these: at 80 μM, the highest concentration tested.
Data set [19] deals with severe myelogenous leukemia tumor (K562) cells. More on the design: method as in doi:10.1016/j.jscs.2021.101298. The following applies: read-out: cytotoxicity against K562 cells, IC50 value.
A further data set relates to RAW 264.7 macrophages. More on the design: method as in PMID 25245917. The following applies: at 40 μM.
For a further data set, the system named is MOR. Set-up: method as in PMID 21163339.
Another data set relates to DOR. Set-up: method as in PMID 21163339.
In another data set the test system is Musca. More on the design: method as in PMID 12444704.
On the set-up of data set [20]: method as in PMID 24965780.
The test system of data set [21] is NO production in LPS-induced murine macrophage (RAW 264.7) cells. More on the design: method as in PMID 29429059. The following applies: LPS-induced RAW 264.7 macrophages, up to 100 μM.

As for `O=C(OCC1=C[C@@H](O)[C@@H]2C=CO[C@@H](O[C@@H]3O[C@H](COC(=O)c4ccc(O)cc4)[C@@H](O)[C@H](O)[C@H]3O)[C@H]12)c1ccc(O)cc1` [Compound 21, 10-p-hydroxybenzoyl-6β-hydroxyiridoid 1-O-β-D-(6′-O-p-hydroxybenzoyl)glucopyranoside], in the data set with NO production [1], the “inhibition of NO production” value is reported as “did not inhibit; also recorded: No inhibitory activity on NO production”.
On to `CC1C(C=O)CCC2(C(=O)O)CCC3(C)C(=CCC4C5(C)CCC(O)C(C)(C)C5CCC43C)C12` (stereo not drawn) [Compound 147, 3β-hydroxy-30-al-urs-12-en-28-oic acid], for which the “cytotoxic activity against SGC-7901” value in data set [2] is “Exhibited cytotoxic activity against HL-60, SGC-7901, PANC-01, and Eca-109 cell lines”. Further, the “cytotoxic activity against PANC-01” value in data set [3] is “Exhibited cytotoxic activity against HL-60, SGC-7901, PANC-01, and Eca-109 cell lines”. For the same molecule, in the data set with leukemia (HL-60), the “cytotoxic activity against HL-60” value was “Exhibited cytotoxic activity against HL-60, SGC-7901, PANC-01, and Eca-109 cell lines”. In addition, the “cytotoxic activity against Eca-109” value in data set [4] was “Exhibited cytotoxic activity against HL-60, SGC-7901, PANC-01, and Eca-109 cell lines”.
`COc1cc(C2c3c(cc(OC)c(O)c3OC)C=C(C=O)C2COC2OC(CO)C(O)C(O)C2O)ccc1O` (centres unmarked) [Compound 130, vitexnegheteroin F]: in [5], the “cytotoxic activity against HepG2 cell lines” value is reported as “moderate cytotoxic activity; also recorded: Exhibited moderate cytotoxic activities against human liver carcinoma (HepG2) cell lines”.
Turning to `C=CC(C)(O)CCC1=C(C)C(OC(C)=O)C(OC(C)=O)C2C(C)(C)CCCC12C` (stereo not drawn) [Compound 52, 6β,7β-diacetoxy-13-hydroxy-labda-8,14-diene], the “affinity to the dopamine-D2-receptor, IC50 value” at dopamine-D2-receptor is listed as “It showed strong affinity to the dopamine-D2-receptor with IC50 value of 15 μg/mL”.
`COC1CC2(CCC3(O2)C(C)CC(OC(C)=O)C2C(C)(C)CCCC23C)C(OC)O1` (centres unmarked) [Compound 32]: the antioxidant activity result in data set [6] is on record as “did not exhibit any activities”.
Regarding `C=CC(C)(O)CCC1(C)C2=C(CC(OCC)C1C)C(C)(C)CCC2` (centres unmarked) [Compound 90], in the data set on HCT 116 cells, the “cytotoxicity against HCT 116 cells (rank)” value is “most cytotoxic”. For the same molecule, the “Top1 inhibition compared with camptothecin (CPT)” value with Topoisomerase-1 (Top1) is “equipotent”. Also, the “cytotoxicity (in words)” value in data set [7] was “moderate cytotoxicity in the micromolar range; also recorded: moderate cytotoxicity at micromolar range”.
As to `O=C(OCC1=CC(=O)C2C=CO[C@@H](O[C@@H]3O[C@H](CO)[C@@H](O)[C@H](O)[C@H]3O)C12)c1ccc(O)cc1` (some centres unmarked) [Compound 18, agnusoside], the “anti-inflammatory activity, LPS-induced NO production” value in [8] is given as “moderate anti-inflammatory activity; also recorded: Exhibited moderate anti-inflammatory activity using NO production induced by lipopolysaccharide”.
As for `CC1=C(CCC2=CCOC2=O)[C@@]2(C)CC[C@H](O)C(C)(C)[C@@H]2CC1` [Compound 98, (3S,5R,10S)-3-hydroxy-labd-8,13-dien-16,15-olide], the “inhibition of IL-1β level” value in [9] was “significant inhibition”. Moreover, the “inhibition of IL-6 level” value in the data set on IL-6 is reported as “significant inhibition”. The “inhibition of NF-κB signal pathways” value with NF-κB signal pathways is “able to inhibit; also recorded: inhibition on iNOS, COX-2 and NF-κB signal pathways”. The “inhibition of COX-2” value in the data set with COX-2 was “able to inhibit; also recorded: inhibition on iNOS, COX-2 and NF-κB signal pathways”. The “inhibition of LPS-induced NO production (in words)” value in [10] is reported as “strong”. Besides, in data set [10] (read-out: inhibition of NO production, IC50 value), the IC50 was 15.8 µM. Moreover, the “inhibition of iNOS” value in data set [11] is “able to inhibit; also recorded: inhibition on iNOS, COX-2 and NF-κB signal pathways”.
With `C[C@@H]1CC[C@H]2C(C)(C)CCC[C@]2(C)[C@@]1(O)CCc1cc[nH]c1C#N` [Compound 79, vitepyrroloid A], in [12], the IC50 was 8.7 µM.
In the case of `COc1cc(C2c3cc(O)c(O)cc3C=C(C=O)C2COC2OC(CO)C(O)C(O)C2O)ccc1O` (centres unmarked) [Compound 129, vitexnegheteroin E], the “inhibition of LPS-induced NO production” value in data set [13] was “inhibitory activities”. Moreover, the antioxidant activity result in data set [14] is reported as “antioxidant”.
For the molecule `O=C(O)CC1CCC(=O)C1CC=CCCOC1OC(COC(=O)C=Cc2ccc(O)c(O)c2)C(O)C(O)C1O` (centres unmarked) [Compound 159, 12-hydroxyjasmonic acid (6-O-caffeoyl)glucoside], in the data set with BV-2 cells, the “cytotoxic effect on BV-2 cells” value was “no cytotoxic effect; also recorded: no effect of cytotoxicity”. The IC50 in data set [15] is above 100 µM.
As to `CC(C)(O)C(O)CC[C@](C)(O)[C@H]1CC[C@@]2(O)C3=CC(=O)[C@@H]4C[C@@H](O)[C@@H](O)C[C@]4(C)C3CC[C@]12C` (some centres unmarked) [Compound 103, pinnatasterone], the “activity against Musca domestica larvae” value in the data set on Musca domestica larvae was “Exhibited weak activity against M. domestica larvae”.
As to `CC(=O)O[C@H]1CC[C@@]2(C)[C@@H](CC[C@@H](C)[C@]2(O)CCc2ccoc2)C1(C)C` [Compound 56, Vitetrifolin H], the IC50 in [16] was 4 to 28 µM.
As to `CC(=O)OC1CC(C)C(O)(CCC2=CC(=O)NC2)C2(C)CCCC(C)(C)C12` (centres unmarked) [Compound 55, vitexlactam C], the QR1 induction activity entry in [17] is “moderate results; also recorded: Compound 55 showed moderate result on NADP(H); quinone oxireductase type1 (QR1) induction activity”.
For the molecule cannabifolin F [Compound 146], the “inhibition of NO production” value in the data set with NO production [18] is reported as below 50%.
As for `CC(=O)OC1CC(C)C2(CCC3(COC(=O)C3)O2)C2(C)CCCC(C)(C)C12` (centres unmarked) [Compound 99, 9-epivitexnegundin], in data set [19], the IC50 was above 100 µM.
Take `CC1(C)CC[C@@]23CC[C@@]4(C)[C@]5(C)CC[C@H]6C(C)(C)[C@@H](O)[C@H](O)C[C@]6(C)[C@H]5CC(=O)[C@]4(OC2=O)[C@@H]3C1` [Compound 145, cannabifolin E]: the “cell viability of RAW 264.7 macrophages” value with RAW 264.7 macrophages is below 70%.
Consider `CC(=O)O[C@@H]1C[C@@H](C)[C@](O)(CCC2=CC(=O)OC2O)[C@@]2(C)CCCC(C)(C)[C@H]12` (some centres unmarked) [Compound 58, Viteagnusin I], for which the “activity on opioid receptor assay MOR” value with MOR was “No activity was shown on opioid receptor assays DOR and MOR”. Moreover, in the data set with DOR, the “activity on opioid receptor assay DOR” value is “No activity was shown on opioid receptor assays DOR and MOR”.
For the molecule `CC(C)(O)CCC[C@](C)(O)C1CC[C@@]2(O)C3=CC(=O)[C@@H]4C[C@@H](O)[C@@H](O)C[C@]4(C)C3[C@H](O)C[C@]12C` (some centres unmarked) [Compound 110, scabrasterone], the “molting activity in the Musca bioassay” value with Musca is “very weak molting activity”.
Take `COc1cc([C@H]2c3c(cc(OC)c(O)c3OC)C=C(C=O)[C@@H]2CO)ccc1O` [Compound 128, vitexdoin F]: the “DPPH radical-scavenging activity compared with ascorbic acid” value in data set [20] is recorded as “Exhibited stronger activity than ascorbic acid using DPPH radical-scavenging assays”.
Regarding `C[C@@H]1C[C@@H](O)C2C(C)(C)[C@@H](O[C@@H]3O[C@H](CO)[C@@H](O)[C@H](O)[C@H]3O)CC[C@]2(C)[C@@]1(O)CCC1=CCOC1=O` (stereo partly drawn) [Compound 96, (3S,5S,6S,8R,9R,10S)-3,6,9-trihydroxy-13(14)-labdean-16,15-olide-3-O-β-D-gluco-pyranoside], the “inhibitory effect on NO production (in words)” value in data set [21] was “No inhibitory activity on NO production in LPS-induced RAW 264.7 macrophages up to concentration of 100 μM”.
